Source: PMC12090182, “Repurposing of the RIPK1-Selective Benzo[1,4]oxazepin-4-one Scaffold for the Development of a Type III LIMK1/2 Inhibitor” (ACS Chemical Biology, 2025)
Where two headings read alike, the source gives them in different places.

Key:
BRD4 = BRD4 (Homo sapiens, UniProt O60885); assay: DSF selectivity screening; assay type: binding; conditions: 10 μM compound
WNK2 = WNK2 (Homo sapiens, UniProt Q9Y3S1); assay: scanMAX KINOMEscan (Eurofins); assay type: binding
[1] = Pharmacokinetic screening in mice (IV and PO, cassette dosing); assay type: in vivo, mouse; conditions: plasma
Experimental: Test compounds were administered intravenously (0.1 mg mL^–1/kg) or orally (1 mg/5 mL/kg) by cassette dosing to nonfasted mice. After administration, blood samples were collected and centrifuged to obtain the plasma fraction. The plasma samples were deproteinized followed by centrifugation. The compound concentrations in the supernatant were analyzed by LC/MS/MS.

EGFR(L858R) = EGFR(L858R) (Homo sapiens, UniProt P00533, L858R); assay: biochemical; assay type: binding; conditions: compound concentration 100 nM; Entrez EGFR; read-out: Percent Control
CTK = CTK (Homo sapiens, UniProt P42679); assay: scanMAX KINOMEscan (Eurofins); assay type: binding; conditions: 1000 nM, read-out: Percent Control
From the text: (§1) Supplement cb5c00097_si_002.xlsx, sheet "Table S6 (Eurofins Selectivity)" | column: Percent Control

NIM1 = NIM1 (Homo sapiens, UniProt Q8IY84); assay: scanMAX KINOMEscan (Eurofins); assay type: binding; conditions: compound concentration 100 nM; Entrez MGC42105; read-out: Percent Control
From the text: as §1

BLK = BLK (Homo sapiens, UniProt P51451); assay: scanMAX KINOMEscan (Eurofins); assay type: binding; conditions: 1000 nM, read-out: Percent Control
From the text: as §1

ALK = ALK (Homo sapiens, UniProt Q9UM73); assay: scanMAX KINOMEscan (Eurofins); assay type: binding; conditions: read-out: Percent Control
From the text: as §1

MRCKB = MRCKB (Homo sapiens, UniProt Q9Y5S2); assay: scanMAX KINOMEscan (Eurofins); assay type: binding; conditions: compound concentration 100 nM; Entrez CDC42BPB; read-out: Percent Control
From the text: as §1

PKMYT1 = PKMYT1 (Homo sapiens, UniProt Q99640); assay: scanMAX KINOMEscan (Eurofins); assay type: binding; conditions: 1000 nM, read-out: Percent Control
From the text: as §1

STK39 = STK39 (Homo sapiens, UniProt Q9UEW8); assay: scanMAX KINOMEscan (Eurofins); assay type: binding; conditions: 1000 nM, read-out: Percent Control
From the text: as §1

PIK3CD = PIK3CD (Homo sapiens, UniProt O00329); assay: scanMAX KINOMEscan (Eurofins); assay type: binding; conditions: 1000 nM, read-out: Percent Control
From the text: as §1

HIPK4 = HIPK4 (Homo sapiens, UniProt Q8NE63); assay: scanMAX KINOMEscan (Eurofins); assay type: binding; conditions: 1000 nM, read-out: Percent Control
From the text: as §1

PKAC-beta = PKAC-beta (Homo sapiens, UniProt P22694); assay: scanMAX KINOMEscan (Eurofins); assay type: binding; conditions: 1000 nM, read-out: Percent Control
From the text: as §1

CSF1R = CSF1R (Homo sapiens, UniProt P07333); assay: scanMAX KINOMEscan (Eurofins); assay type: binding; conditions: read-out: Percent Control
From the text: as §1

ERN1 = ERN1 (Homo sapiens, UniProt O75460); assay: scanMAX KINOMEscan (Eurofins); assay type: binding; conditions: read-out: Percent Control
From the text: as §1

AURKC = AURKC (Homo sapiens, UniProt Q9UQB9); assay: scanMAX KINOMEscan (Eurofins); assay type: binding; conditions: 1000 nM, read-out: Percent Control
From the text: as §1

MRCKA = MRCKA (Homo sapiens, UniProt Q5VT25); assay: scanMAX KINOMEscan (Eurofins); assay type: binding; conditions: 1000 nM, read-out: Percent Control
From the text: as §1

YANK3 = YANK3 (Homo sapiens, UniProt Q86UX6); assay: scanMAX KINOMEscan (Eurofins); assay type: binding; conditions: 1000 nM, read-out: Percent Control
From the text: as §1

EPHB1 = EPHB1 (Homo sapiens, UniProt P54762); assay: scanMAX KINOMEscan (Eurofins); assay type: binding; conditions: 1000 nM, read-out: Percent Control
From the text: as §1

MERTK = MERTK (Homo sapiens, UniProt Q12866); assay: scanMAX KINOMEscan (Eurofins); assay type: binding; conditions: 1000 nM, read-out: Percent Control
From the text: as §1

CDK11 = CDK11 (Homo sapiens, UniProt Q9BWU1); assay: scanMAX KINOMEscan (Eurofins); assay type: binding; conditions: read-out: Percent Control
From the text: as §1

MEK5 = MEK5 (Homo sapiens, UniProt Q13163); assay: scanMAX KINOMEscan (Eurofins); assay type: binding; conditions: 1000 nM, read-out: Percent Control
From the text: as §1

MAPKAPK5 = MAPKAPK5 (Homo sapiens, UniProt Q8IW41); assay: scanMAX KINOMEscan (Eurofins); assay type: binding; conditions: compound concentration 100 nM; Entrez MAPKAPK5; read-out: Percent Control
From the text: as §1

MTOR = MTOR (Homo sapiens, UniProt P42345); assay: scanMAX KINOMEscan (Eurofins); assay type: binding; conditions: compound concentration 100 nM; Entrez MTOR; read-out: Percent Control
From the text: as §1

CDK5 = CDK5 (Homo sapiens, UniProt Q00535); assay: scanMAX KINOMEscan (Eurofins); assay type: binding; conditions: read-out: Percent Control
From the text: as §1

CDK7 = CDK7 (Homo sapiens, UniProt P50613); assay: scanMAX KINOMEscan (Eurofins); assay type: binding; conditions: read-out: Percent Control
From the text: as §1

[2] = target: RPS6KA5(Kin.Dom.2-C-terminal) (Homo sapiens, UniProt O75582); assay: scanMAX KINOMEscan (Eurofins); assay type: binding; conditions: compound concentration 100 nM; Entrez RPS6KA5; read-out: Percent Control
From the text: as §1

EGFR(L858R,T790M) = EGFR(L858R,T790M) (Homo sapiens, UniProt P00533, L858R/T790M); assay: biochemical; assay type: binding; conditions: read-out: Percent Control
FLT3(D835H) = FLT3(D835H) (Homo sapiens, UniProt P36888, D835H); assay: biochemical; assay type: binding; conditions: 1000 nM, read-out: Percent Control
PIK3CA(H1047L) = PIK3CA(H1047L) (Homo sapiens, UniProt P42336, H1047L); assay: biochemical; assay type: binding; conditions: read-out: Percent Control
PIK3CA(E545K) = PIK3CA(E545K) (Homo sapiens, UniProt P42336, E545K); assay: biochemical; assay type: binding; conditions: read-out: Percent Control

Sequence of WNK2 (Q9Y3S1 whole entry): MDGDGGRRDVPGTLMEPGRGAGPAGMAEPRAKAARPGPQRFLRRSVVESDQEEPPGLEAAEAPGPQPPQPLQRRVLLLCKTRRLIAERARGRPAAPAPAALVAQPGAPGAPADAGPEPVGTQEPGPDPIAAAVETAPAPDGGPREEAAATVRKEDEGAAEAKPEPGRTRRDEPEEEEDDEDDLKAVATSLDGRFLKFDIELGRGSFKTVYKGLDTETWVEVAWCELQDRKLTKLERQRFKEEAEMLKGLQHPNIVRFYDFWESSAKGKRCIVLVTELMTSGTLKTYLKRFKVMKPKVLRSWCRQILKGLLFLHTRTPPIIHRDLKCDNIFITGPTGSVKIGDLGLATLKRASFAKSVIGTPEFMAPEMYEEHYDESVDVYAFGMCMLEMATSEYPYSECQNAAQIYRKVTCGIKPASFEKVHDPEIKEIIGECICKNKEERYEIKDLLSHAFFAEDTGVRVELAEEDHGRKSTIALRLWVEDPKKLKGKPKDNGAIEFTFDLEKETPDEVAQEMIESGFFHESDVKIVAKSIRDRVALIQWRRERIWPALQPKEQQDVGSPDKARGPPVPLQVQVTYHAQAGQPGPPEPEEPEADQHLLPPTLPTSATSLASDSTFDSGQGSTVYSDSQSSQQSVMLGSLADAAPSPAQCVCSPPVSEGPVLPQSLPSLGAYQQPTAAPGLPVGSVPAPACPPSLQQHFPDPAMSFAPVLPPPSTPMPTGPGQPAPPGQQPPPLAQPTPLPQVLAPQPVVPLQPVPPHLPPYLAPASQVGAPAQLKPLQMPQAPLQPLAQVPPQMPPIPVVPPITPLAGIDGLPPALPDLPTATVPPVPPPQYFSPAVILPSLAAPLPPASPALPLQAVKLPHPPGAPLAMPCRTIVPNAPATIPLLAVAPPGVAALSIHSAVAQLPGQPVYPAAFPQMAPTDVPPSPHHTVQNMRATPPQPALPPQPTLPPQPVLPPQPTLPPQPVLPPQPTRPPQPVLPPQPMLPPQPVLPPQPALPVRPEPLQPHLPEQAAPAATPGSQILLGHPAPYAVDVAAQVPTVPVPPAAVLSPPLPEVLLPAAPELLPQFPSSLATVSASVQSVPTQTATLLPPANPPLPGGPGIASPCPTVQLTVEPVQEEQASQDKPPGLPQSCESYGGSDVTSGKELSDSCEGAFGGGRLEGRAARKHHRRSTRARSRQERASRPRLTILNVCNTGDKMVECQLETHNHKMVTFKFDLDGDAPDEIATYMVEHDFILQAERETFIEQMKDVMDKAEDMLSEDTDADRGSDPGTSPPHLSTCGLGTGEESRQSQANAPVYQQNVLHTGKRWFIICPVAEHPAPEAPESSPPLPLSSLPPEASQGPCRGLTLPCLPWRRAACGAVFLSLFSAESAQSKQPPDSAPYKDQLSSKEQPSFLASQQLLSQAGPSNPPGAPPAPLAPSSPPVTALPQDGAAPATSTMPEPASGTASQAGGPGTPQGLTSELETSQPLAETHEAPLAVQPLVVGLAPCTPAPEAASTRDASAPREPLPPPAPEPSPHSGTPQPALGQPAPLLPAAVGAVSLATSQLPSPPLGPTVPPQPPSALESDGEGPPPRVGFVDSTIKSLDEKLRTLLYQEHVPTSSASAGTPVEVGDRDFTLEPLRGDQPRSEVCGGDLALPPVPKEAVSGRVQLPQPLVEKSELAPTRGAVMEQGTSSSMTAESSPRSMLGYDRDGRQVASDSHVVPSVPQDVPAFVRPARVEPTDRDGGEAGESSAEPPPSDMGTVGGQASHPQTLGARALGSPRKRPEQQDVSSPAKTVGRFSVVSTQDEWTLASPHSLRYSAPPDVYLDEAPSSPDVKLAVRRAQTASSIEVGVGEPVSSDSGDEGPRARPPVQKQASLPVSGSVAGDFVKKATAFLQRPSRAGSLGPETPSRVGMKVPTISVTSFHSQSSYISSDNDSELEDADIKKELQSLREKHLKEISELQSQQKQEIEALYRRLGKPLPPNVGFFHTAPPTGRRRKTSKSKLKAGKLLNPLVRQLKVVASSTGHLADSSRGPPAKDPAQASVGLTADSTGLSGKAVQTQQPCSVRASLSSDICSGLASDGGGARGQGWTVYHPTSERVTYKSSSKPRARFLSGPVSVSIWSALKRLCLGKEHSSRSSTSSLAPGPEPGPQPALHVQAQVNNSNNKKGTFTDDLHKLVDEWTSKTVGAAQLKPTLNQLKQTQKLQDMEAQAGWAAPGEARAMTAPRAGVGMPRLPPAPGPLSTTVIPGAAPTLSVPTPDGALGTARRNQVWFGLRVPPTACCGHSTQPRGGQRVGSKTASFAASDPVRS
Sequence of ERN1 (O75460 19-977): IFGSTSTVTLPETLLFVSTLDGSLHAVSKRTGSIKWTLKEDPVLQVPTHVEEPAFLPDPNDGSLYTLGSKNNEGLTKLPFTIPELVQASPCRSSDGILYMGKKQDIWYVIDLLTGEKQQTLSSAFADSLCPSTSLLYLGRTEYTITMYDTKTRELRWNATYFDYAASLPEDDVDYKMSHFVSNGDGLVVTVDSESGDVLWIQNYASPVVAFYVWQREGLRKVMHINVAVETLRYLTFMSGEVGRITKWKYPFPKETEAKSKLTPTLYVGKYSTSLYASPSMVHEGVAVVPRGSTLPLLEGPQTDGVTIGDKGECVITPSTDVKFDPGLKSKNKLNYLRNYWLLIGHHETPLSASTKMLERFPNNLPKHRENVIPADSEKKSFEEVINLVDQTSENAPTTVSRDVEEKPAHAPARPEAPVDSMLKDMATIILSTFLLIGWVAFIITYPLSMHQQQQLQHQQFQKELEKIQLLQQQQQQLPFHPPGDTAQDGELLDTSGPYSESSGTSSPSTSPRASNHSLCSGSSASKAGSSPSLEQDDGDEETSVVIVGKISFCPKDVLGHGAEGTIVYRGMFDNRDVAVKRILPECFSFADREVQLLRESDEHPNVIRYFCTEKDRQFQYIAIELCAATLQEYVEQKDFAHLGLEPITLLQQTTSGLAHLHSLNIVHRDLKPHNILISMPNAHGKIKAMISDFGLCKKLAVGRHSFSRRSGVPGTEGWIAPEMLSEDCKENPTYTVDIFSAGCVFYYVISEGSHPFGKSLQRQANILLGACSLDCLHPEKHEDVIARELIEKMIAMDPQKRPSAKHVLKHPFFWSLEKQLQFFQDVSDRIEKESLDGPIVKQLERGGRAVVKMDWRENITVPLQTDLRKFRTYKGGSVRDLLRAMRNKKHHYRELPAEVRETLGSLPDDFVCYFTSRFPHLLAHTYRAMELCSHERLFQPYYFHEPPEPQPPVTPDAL
Sequence of CSF1R (P07333 20-972): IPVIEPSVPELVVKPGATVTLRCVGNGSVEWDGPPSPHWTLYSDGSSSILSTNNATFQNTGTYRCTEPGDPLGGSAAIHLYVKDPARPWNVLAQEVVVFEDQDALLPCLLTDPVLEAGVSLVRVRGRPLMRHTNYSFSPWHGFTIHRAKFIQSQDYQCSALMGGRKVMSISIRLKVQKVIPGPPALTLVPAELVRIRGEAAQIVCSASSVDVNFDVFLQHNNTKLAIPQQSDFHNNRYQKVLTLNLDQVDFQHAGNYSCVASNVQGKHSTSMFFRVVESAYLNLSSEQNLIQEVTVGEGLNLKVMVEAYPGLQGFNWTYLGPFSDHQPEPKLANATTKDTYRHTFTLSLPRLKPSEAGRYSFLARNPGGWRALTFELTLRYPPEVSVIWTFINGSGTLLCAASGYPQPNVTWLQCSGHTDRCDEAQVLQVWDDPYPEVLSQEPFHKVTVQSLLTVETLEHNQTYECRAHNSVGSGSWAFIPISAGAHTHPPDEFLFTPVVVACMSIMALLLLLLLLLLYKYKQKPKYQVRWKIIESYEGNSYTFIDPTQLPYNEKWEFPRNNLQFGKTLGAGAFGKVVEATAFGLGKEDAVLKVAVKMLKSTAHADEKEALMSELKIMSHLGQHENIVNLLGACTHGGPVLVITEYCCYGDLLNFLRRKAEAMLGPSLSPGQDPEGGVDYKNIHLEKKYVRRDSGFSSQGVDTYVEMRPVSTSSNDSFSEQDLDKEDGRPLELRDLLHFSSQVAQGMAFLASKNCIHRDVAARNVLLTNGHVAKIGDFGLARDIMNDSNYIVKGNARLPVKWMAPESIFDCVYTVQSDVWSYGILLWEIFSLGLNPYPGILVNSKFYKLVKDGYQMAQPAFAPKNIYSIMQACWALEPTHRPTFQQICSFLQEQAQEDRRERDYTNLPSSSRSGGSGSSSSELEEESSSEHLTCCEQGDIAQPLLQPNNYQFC
Sequence of CDK7 (P50613 whole entry): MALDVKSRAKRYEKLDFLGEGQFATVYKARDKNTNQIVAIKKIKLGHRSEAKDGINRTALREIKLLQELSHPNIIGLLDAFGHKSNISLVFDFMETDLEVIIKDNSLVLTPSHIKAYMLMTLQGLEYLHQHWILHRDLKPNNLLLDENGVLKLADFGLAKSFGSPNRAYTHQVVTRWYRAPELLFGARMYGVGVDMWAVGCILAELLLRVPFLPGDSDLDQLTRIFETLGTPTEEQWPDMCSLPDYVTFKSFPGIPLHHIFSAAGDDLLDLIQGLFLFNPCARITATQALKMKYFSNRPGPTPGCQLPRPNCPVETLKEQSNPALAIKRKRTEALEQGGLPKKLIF
Sequence of CDK11 (Q9BWU1 whole entry): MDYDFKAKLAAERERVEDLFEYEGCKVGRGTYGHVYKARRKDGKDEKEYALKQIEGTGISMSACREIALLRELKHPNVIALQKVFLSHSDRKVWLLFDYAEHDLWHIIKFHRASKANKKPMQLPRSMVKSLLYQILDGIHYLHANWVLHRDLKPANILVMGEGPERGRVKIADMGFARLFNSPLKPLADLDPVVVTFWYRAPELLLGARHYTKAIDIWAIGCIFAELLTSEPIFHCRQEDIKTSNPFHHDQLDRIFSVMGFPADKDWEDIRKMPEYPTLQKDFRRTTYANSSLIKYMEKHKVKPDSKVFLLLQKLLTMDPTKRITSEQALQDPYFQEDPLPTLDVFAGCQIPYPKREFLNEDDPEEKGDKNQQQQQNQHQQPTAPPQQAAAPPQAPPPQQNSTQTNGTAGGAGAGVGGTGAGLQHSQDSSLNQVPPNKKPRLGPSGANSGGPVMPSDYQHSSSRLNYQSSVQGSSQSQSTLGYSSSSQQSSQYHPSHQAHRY

Compound CN1C(=O)[C@@H](N2CCc3c(nn(Cc4ccccc4)c3C(N)=O)C2=O)COc2cc(Cl)ccc21 [Compound 10, (S)-2-benzyl-6-(8-chloro-5-methyl-4-oxo-2,3,4,5-tetrahydrobenzo[b][1,4]oxazepin-3-yl)-7-oxo-4,5,6,7-tetrahydro-2H-pyrazolo[3,4-c]pyridine-3-carboxamide] has a ΔTm at 10 µM (BRD4) of -1.4 °C, a remaining binding at 0.1 µM (WNK2; WNK2 (Entrez WNK2), 100 nM, read-out: Percent Control) of 100% and a remaining binding at 1 µM (WNK2; WNK2, 1 μM, read-out: POC (Top Hits @ 1 μM)) of 49%. It also gave a remaining binding at 1 µM (WNK2; WNK2, 1000 nM, read-out: Percent Control) of 49%, an AUC ([1]; 0.1 mg/kg, Mouse PK IV, 0.10 mg/kg, read-out: AUCiv) of 94.7 ng·h/mL and a concentration at 5 min ([1]; 0.1 mg/kg, Mouse PK IV, 0.10 mg/kg, read-out: C5min) of 44.5 ng/mL. The Cmax ([1]; Mouse PK PO, 1.0 mg/kg) was 11.8 ng/mL, the Tmax ([1]; Mouse PK PO, 1.0 mg/kg) was 30 min and the AUC ([1]; Mouse PK PO, 1.0 mg/kg, read-out: AUCpo) was 30.9 ng·h/mL. It also gave a bioavailability ([1]; mouse, PO 1.0 mg/kg vs IV 0.10 mg/kg) of 4%, a remaining activity at 0.1 µM (EGFR(L858R)) of 100% and a remaining binding at 1 µM (CTK) of 97%. It also gave a remaining binding at 0.1 µM (NIM1) of 99%, a remaining binding at 1 µM (BLK) of 88% and a remaining binding at 1 µM (ALK; 1000 nM) of 100%. It also gave a remaining binding at 0.1 µM (ALK; compound concentration 100 nM, Entrez ALK) of 84%, a remaining binding at 0.1 µM (MRCKB) of 95% and a remaining binding at 1 µM (PKMYT1) of 95%. For the same compound, the remaining binding at 1 µM (STK39) was 84%, the remaining binding at 1 µM (PIK3CD) was 83% and the remaining binding at 1 µM (HIPK4) was 87%. For the same compound, the remaining binding at 1 µM (PKAC-beta) was 87%, the remaining binding at 1 µM (CSF1R; 1000 nM) was 100% and the remaining binding at 0.1 µM (CSF1R; compound concentration 100 nM, Entrez CSF1R) was 83%. For the same compound, the remaining binding at 1 µM (ERN1; 1000 nM) was 100%, the remaining binding at 0.1 µM (ERN1; compound concentration 100 nM, Entrez ERN1) was 100% and the remaining binding at 1 µM (AURKC) was 90%. The remaining binding at 1 µM (MRCKA) was 88%, the remaining binding at 1 µM (YANK3) was 92% and the remaining binding at 1 µM (EPHB1) was 94%. It also gave a remaining binding at 1 µM (MERTK) of 98%, a remaining binding at 1 µM (CDK11; 1000 nM) of 100% and a remaining binding at 0.1 µM (CDK11; compound concentration 100 nM, Entrez CDK19) of 100%. The remaining binding at 1 µM (MEK5) was 82%, the remaining binding at 0.1 µM (MAPKAPK5) was 96% and the remaining binding at 0.1 µM (MTOR) was 86%. The remaining binding at 1 µM (CDK5; 1000 nM) was 99%, the remaining binding at 0.1 µM (CDK5; compound concentration 100 nM, Entrez CDK5) was 78% and the remaining binding at 1 µM (CDK7; 1000 nM) was 99%. It also gave a remaining binding at 0.1 µM (CDK7; compound concentration 100 nM, Entrez CDK7) of 72%, a remaining binding at 0.1 µM [2] of 95% and a remaining activity at 1 µM (EGFR(L858R,T790M)) of 100%. The remaining activity at 1 µM (FLT3(D835H)) was 100%, the remaining activity at 1 µM (PIK3CA(H1047L)) was 99% and the remaining activity at 1 µM (PIK3CA(E545K)) was 97%.
